Columns and labels:
[1] = tested on: HAP1 MTAP-intact cell line; assay: SDMA in-cell western assay, HAP1 MTAP-intact; format: cell-based; conditions: Homo sapiens, HAP1, SDMA in-cell western, HAP1 MTAP-intact; read-out: MTAP HAP1 intact IC50
How it was run: (§1)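 Compounds were tested in HAP1 cells differing only in MTAP status (endogenous expression versus null). Cellular SDMA levels were then measured by in-cell western, giving an IC50 in each background.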

PRMT5 [2] = target: T1, PRMT5 (Homo sapiens, UniProt O14744); assay: PRMT5 biochemical IC50 assay with MTA as cofactor; conditions: PRMT5, MTA as cofactor; read-out: MTA IC50
T1 construct: purchased Viva (custom protein)

PRMT5 [3] = target: T1, PRMT5; assay: PRMT5 biochemical IC50 assay with SAM as cofactor; conditions: PRMT5, SAM as cofactor; read-out: SAM IC50
[4] = tested on: HAP1 MTAP-deleted cell line; assay: SDMA in-cell western assay, HAP1 MTAP-deleted; format: cell-based; conditions: for IC50: Homo sapiens, HAP1, SDMA in-cell western, HAP1 MTAP-deleted; for MTAP intact/deleted ratio: IC50 ratio HAP1 MTAP-intact / HAP1 MTAP-deleted, SDMA in-cell western
How it was run: as §1

PRMT5 [5] = target: T1, PRMT5; assay: PRMT5 biochemical IC50 assay with no cofactor; conditions: PRMT5, no cofactor; read-out: No Cofactor/rel IC50
Excerpt: Table 1 indicates IC50 values (μM) against PRMT5 for exemplary compounds in the presence of SAM as cofactor, with no cofactor, and with MTA as cofactor, respectively (columns 4-6). […] Ki values can be calculated from the IC50 values as described in the Examples section. As detailed in the Examples section, for the assay performed in the presence of SAM, IC50=Ki×1.5 (Ki=IC50/1.5).

[6] = tested on: HAP1 MTAP-deleted cell line; assay: Viability assay, MTAP-deleted cell line; format: cell-based; conditions: Homo sapiens, read-out: HAP1 MTAP deleted viability
Excerpt: Table 1 additionally indicates IC50 values in a viability assay for the MTAP-deleted cell line (column 10), indicating the effect of treatment with compound on cell survival.

[7] = read-out: HAP 1 MTAP deleted IC50
[8] = HAP1, viability IC50, MTAP-deleted cell line
[9] = read-out: HAP1 MTAP deleted IC50
[10] = HAP1, viability assay, HAP1 MTAP-deleted

T1 sequence (O14744 whole entry): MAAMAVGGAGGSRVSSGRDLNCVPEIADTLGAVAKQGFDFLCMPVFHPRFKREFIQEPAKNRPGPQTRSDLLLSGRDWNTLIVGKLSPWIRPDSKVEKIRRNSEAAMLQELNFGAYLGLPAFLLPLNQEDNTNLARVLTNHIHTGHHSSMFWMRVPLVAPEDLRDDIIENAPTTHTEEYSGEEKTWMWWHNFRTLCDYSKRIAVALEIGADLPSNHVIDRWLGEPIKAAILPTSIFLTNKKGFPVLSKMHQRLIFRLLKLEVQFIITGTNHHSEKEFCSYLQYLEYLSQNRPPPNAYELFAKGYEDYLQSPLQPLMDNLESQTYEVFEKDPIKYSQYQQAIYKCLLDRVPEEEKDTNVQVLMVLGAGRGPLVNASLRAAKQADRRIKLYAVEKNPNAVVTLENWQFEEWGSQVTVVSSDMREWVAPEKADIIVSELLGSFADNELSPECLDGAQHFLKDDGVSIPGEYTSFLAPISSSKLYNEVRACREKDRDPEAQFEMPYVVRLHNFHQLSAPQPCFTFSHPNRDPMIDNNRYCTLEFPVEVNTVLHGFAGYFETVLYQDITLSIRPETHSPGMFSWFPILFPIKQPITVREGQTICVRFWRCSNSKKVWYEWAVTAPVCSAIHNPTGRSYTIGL
T1 sequence (Q9BQA1 whole entry partner): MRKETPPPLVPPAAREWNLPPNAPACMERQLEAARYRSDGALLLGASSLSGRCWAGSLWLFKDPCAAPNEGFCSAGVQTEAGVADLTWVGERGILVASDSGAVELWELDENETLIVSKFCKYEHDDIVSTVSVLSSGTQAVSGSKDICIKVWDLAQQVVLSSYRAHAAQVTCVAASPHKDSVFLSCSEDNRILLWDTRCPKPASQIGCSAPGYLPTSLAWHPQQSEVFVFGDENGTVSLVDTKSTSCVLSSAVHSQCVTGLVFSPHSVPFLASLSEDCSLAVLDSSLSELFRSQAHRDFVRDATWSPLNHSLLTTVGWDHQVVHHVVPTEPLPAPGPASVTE

Compound	IC50 [1]	IC50 (PRMT5 [2])	IC50 (PRMT5 [3])	IC50 [4, 7]	MTAP intact/deleted ratio [4]	IC50 (PRMT5 [5])	IC50 [6, 8]	IC50 [4, 9]	IC50 [6, 10]
CC(=O)Nc1ccc([C@H]2CC[C@H](C)CN2C(=O)C(=O)Nc2cncc(C(N)=O)c2)s1 (single isomer, unassigned) [Compound 686]	> 1000 nM	> 500 nM	> 500 nM	> 1000 nM	C (an IC50 ratio of less than 3 fold)	> 500 nM	> 10 µM		
Cc1ccc([C@@H]2CC[C@@H](C)CN2C(=O)C(=O)Nc2cnc(N)c(C)c2)cn1 (single isomer, unassigned) [Compound 687]	100 to 1000 nM	< 50 nM	50 to 500 nM	< 100 nM	A (an IC50 ratio greater than or equal to 10 fold)	< 50 nM	< 1 µM		
Cc1cc(NC(=O)C(=O)N2C[C@H](C)CC[C@H]2c2ccc(C(F)(F)F)c(Cl)c2)cnc1N (single isomer, unassigned) [Compound 689]	> 1000 nM	> 500 nM	> 500 nM	> 1000 nM	C (an IC50 ratio of less than 3 fold)	> 500 nM	> 10 µM		
Cc1nc2cc([C@@H]3CC[C@@H](C)CN3C(=O)C(=O)Nc3cncc(C(N)=O)c3)ccc2s1 (single isomer, unassigned) [Compound 693]	100 to 1000 nM	< 50 nM	50 to 500 nM	< 100 nM	A (an IC50 ratio greater than or equal to 10 fold)	< 50 nM	< 1 µM		
CCc1cc(NC(=O)C(=O)N2C[C@@H](C)CC[C@@H]2c2ccc3c(c2)CNC3=O)cnc1N (single isomer, unassigned) [Compound 696, N-(6-amino-5-ethylpyridin-3-yl)-2-(5-methyl-2-(1-oxoisoindolin-5-yl)piperidin-1-yl)-2-oxoacetamide]	> 1000 nM	< 50 nM	50 to 500 nM	< 100 nM	A (an IC50 ratio greater than or equal to 10 fold)	< 50 nM	1 to 10 µM		
Cc1ncc(NC(=O)C(=O)N2C[C@H](C)CC[C@H]2c2ccc3c(c2)CCC(=O)N3)cc1C(F)(F)F (single isomer, unassigned) [Compound 697]	> 1000 nM	< 50 nM	50 to 500 nM	< 100 nM	A (an IC50 ratio greater than or equal to 10 fold)	< 50 nM	< 1 µM		
CCc1cc(NC(=O)C(=O)N2C[C@@H](C)CC[C@@H]2c2ccc3c(c2)C(=O)NC3)cnc1N (single isomer, unassigned) [Compound 700]	> 1000 nM	< 50 nM	50 to 500 nM	< 100 nM	A (an IC50 ratio greater than or equal to 10 fold)	< 50 nM	< 1 µM		
Cc1nc2cc([C@H]3CC[C@H](C)CN3C(=O)C(=O)Nc3cncc(C(N)=O)c3)ccc2s1 (single isomer, unassigned) [Compound 702]	> 1000 nM	> 500 nM	> 500 nM	> 1000 nM	B (an IC50 ratio greater than or equal to 3 fold but lower than 10 fold)	> 500 nM	> 10 µM		
Cc1cc(NC(=O)C(=O)N2C[C@@H](C)CC[C@@H]2c2ccc(C(F)(F)F)c(Cl)c2)cnc1N (single isomer, unassigned) [Compound 703]	100 to 1000 nM	< 50 nM	50 to 500 nM	100 to 1000 nM	C (an IC50 ratio of less than 3 fold)	50 to 500 nM	1 to 10 µM		
CC(=O)Nc1ccc([C@@H]2CC[C@@H](C)CN2C(=O)C(=O)Nc2cncc(C(N)=O)c2)s1 (single isomer, unassigned) [Compound 704]	> 1000 nM	< 50 nM	> 500 nM	> 1000 nM	C (an IC50 ratio of less than 3 fold)	50 to 500 nM	> 10 µM		
Cc1cc(NC(=O)C(=O)N2C[C@@H](C)C(F)(F)C[C@@H]2c2ccc(F)c(F)c2)cnc1N (single isomer, unassigned) [Compound 705]	100 to 1000 nM	< 50 nM	50 to 500 nM		B (an IC50 ratio greater than or equal to 3 fold but lower than 10 fold)	< 50 nM		< 100 nM	< 1 µM
C[C@@H]1CN(C(=O)C(=O)Nc2cncc(C(N)=O)c2)[C@@H](c2ccc(F)c(F)c2)CC1(F)F (single isomer, unassigned) [Compound 706]	> 1000 nM	> 500 nM	> 500 nM		B (an IC50 ratio greater than or equal to 3 fold but lower than 10 fold)	> 500 nM		> 1000 nM	> 10 µM
Cc1ccc([C@H]2CC[C@H](C)CN2C(=O)C(=O)Nc2cnc(N)c(C)c2)cn1 (single isomer, unassigned) [Compound 707]	> 1000 nM	> 500 nM	> 500 nM		B (an IC50 ratio greater than or equal to 3 fold but lower than 10 fold)	> 500 nM		> 1000 nM	> 10 µM
CCc1cc(NC(=O)C(=O)N2C[C@@H](C)CC[C@@H]2c2ccccc2)cnc1N (single isomer, unassigned) [Compound 709]	> 1000 nM	50 to 500 nM	> 500 nM		C (an IC50 ratio of less than 3 fold)	> 500 nM		> 1000 nM	> 10 µM
CC(=O)Nc1ccc([C@H]2CC[C@H](C)CN2C(=O)C(=O)Nc2cnc(N)c(C)c2)s1 (single isomer, unassigned) [Compound 717]	> 1000 nM	> 500 nM	> 500 nM		C (an IC50 ratio of less than 3 fold)	> 500 nM		> 1000 nM	> 10 µM
C[C@@H]1CN(C(=O)C(=O)Nc2cncc(C(N)=O)c2)[C@@H](c2ccc(F)cc2)CC1(F)F (single isomer, unassigned) [Compound 718]	> 1000 nM	> 500 nM	> 500 nM		C (an IC50 ratio of less than 3 fold)	> 500 nM		> 1000 nM	> 10 µM
Cc1nc2cc([C@H]3CC[C@H](C)CN3C(=O)C(=O)Nc3cnc(N)c(C)c3)ccc2s1 (single isomer, unassigned) [Compound 719]	100 to 1000 nM	< 50 nM	50 to 500 nM		A (an IC50 ratio greater than or equal to 10 fold)	< 50 nM		< 100 nM	< 1 µM
CCc1cc(NC(=O)C(=O)N2C[C@H](C)CC[C@H]2c2ccc3c(c2)CCC(=O)N3)cnc1N (single isomer, unassigned) [Compound 720]	100 to 1000 nM	< 50 nM	50 to 500 nM		A (an IC50 ratio greater than or equal to 10 fold)	< 50 nM		< 100 nM	< 1 µM
CCc1cc(NC(=O)C(=O)N2C[C@@H](C)C(F)(F)C[C@@H]2c2ccc(F)c(F)c2)cnc1N (single isomer, unassigned) [Compound 721]	> 1000 nM	< 50 nM	50 to 500 nM		A (an IC50 ratio greater than or equal to 10 fold)	< 50 nM		< 100 nM	< 1 µM
CNS(=O)(=O)c1ccc([C@H]2CC[C@H](C)CN2C(=O)C(=O)Nc2cncc(C(N)=O)c2)cc1 (single isomer, unassigned) [Compound 722]	> 1000 nM	< 50 nM	50 to 500 nM		C (an IC50 ratio of less than 3 fold)	50 to 500 nM		> 1000 nM	> 10 µM
C[C@H]1CC[C@H](c2ccc(S(N)(=O)=O)cc2)N(C(=O)C(=O)Nc2cncc(C(N)=O)c2)C1 (single isomer, unassigned) [Compound 724]	> 1000 nM	> 500 nM	> 500 nM		C (an IC50 ratio of less than 3 fold)	> 500 nM		> 1000 nM	> 10 µM
C[C@@H]1CC[C@@H](c2ccc(S(N)(=O)=O)cc2)N(C(=O)C(=O)Nc2cncc(C(N)=O)c2)C1 (single isomer, unassigned) [Compound 725]	> 1000 nM	< 50 nM	50 to 500 nM		C (an IC50 ratio of less than 3 fold)	50 to 500 nM		> 1000 nM	> 10 µM
